Measurements published in BindingDB's records for doi:10.1021/jm970519e (Smithkline Beecham Pharmaceuticals, 1998).

Assays:
[1] = target: T1, 5-hydroxytryptamine receptor 2C (Homo sapiens, UniProt P28335)
T1 sequence (P28335 whole entry): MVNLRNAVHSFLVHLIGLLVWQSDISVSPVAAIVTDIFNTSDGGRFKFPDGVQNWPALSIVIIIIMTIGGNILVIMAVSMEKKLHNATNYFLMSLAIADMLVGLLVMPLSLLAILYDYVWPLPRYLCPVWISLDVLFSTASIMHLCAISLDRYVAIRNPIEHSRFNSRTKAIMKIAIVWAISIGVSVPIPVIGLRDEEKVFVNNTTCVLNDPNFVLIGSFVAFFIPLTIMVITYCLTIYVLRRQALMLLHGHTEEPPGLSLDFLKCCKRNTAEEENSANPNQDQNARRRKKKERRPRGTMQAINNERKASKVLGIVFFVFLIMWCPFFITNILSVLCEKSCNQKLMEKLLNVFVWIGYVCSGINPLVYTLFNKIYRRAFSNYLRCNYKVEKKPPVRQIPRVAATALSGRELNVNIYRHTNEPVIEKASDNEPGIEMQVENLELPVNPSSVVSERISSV

[2] = target: T2, Alpha-1B adrenergic receptor (Homo sapiens, UniProt P35368)
T2 sequence (P35368 whole entry): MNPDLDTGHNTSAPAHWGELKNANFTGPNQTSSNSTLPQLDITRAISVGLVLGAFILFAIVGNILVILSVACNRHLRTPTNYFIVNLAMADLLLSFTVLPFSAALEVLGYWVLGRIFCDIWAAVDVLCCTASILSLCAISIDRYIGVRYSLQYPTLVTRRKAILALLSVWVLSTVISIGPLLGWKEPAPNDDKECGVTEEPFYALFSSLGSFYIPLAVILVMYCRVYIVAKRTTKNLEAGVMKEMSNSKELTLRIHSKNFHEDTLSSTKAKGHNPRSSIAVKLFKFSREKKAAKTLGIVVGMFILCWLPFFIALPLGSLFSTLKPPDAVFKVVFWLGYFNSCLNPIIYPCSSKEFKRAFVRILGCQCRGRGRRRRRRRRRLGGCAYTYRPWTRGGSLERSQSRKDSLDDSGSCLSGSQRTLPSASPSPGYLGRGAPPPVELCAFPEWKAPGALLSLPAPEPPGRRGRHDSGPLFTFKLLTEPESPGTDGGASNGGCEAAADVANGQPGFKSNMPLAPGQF

[3] = target: 5-hydroxytryptamine receptor 1E (Homo sapiens, UniProt P28566)
[4] = target: 5-hydroxytryptamine receptor 6 (Homo sapiens, UniProt P50406)
[5] = target: 5-hydroxytryptamine receptor 2A (Homo sapiens, UniProt P28223)
5-hydroxytryptamine receptor 2A, sequence (P28223 whole entry): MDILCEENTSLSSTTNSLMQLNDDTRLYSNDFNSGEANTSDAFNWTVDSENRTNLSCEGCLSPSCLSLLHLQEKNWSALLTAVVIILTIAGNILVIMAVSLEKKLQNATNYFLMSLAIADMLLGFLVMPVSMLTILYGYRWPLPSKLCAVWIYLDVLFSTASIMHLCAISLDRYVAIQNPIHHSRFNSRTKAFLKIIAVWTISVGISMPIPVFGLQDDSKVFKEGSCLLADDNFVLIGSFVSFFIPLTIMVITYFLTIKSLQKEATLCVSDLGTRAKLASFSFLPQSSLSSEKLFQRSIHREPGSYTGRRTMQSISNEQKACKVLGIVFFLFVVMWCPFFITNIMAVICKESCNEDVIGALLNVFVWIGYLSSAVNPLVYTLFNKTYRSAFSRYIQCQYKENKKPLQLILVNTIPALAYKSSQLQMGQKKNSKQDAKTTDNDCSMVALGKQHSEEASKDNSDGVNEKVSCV

5-hydroxytryptamine receptor 6, sequence (P50406 whole entry): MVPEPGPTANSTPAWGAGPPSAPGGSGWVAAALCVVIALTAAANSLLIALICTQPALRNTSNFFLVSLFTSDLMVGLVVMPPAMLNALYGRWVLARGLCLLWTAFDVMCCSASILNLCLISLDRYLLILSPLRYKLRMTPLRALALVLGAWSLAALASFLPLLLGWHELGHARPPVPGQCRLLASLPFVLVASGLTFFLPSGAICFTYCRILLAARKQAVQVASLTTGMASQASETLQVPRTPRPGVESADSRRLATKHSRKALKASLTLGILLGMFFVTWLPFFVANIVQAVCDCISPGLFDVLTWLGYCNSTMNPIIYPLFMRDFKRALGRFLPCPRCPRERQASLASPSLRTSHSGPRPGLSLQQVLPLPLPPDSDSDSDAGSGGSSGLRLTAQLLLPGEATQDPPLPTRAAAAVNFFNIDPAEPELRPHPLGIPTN
5-hydroxytryptamine receptor 1E, sequence (P28566 whole entry): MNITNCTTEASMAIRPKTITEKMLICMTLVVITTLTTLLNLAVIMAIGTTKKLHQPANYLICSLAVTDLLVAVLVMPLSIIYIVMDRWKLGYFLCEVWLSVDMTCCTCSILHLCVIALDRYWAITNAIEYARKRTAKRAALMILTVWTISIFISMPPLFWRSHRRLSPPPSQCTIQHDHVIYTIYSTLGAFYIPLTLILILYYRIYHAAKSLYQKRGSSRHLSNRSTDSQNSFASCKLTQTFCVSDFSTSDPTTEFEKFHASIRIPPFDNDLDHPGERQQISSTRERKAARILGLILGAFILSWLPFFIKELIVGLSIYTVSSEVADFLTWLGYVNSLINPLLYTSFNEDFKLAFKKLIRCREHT

Ki [1]: > 10 µM
Ki [2]: > 10 µM
Ki [3]: > 10 µM
Ki [4]: > 10 µM
Ki [5]: > 10 µM
SMILES: Cc1cccc(S(=O)(=O)N(C)[C@H](C)CCN2CCC(C)CC2)c1 [SB-258719]
